Results as given in patent US11124516B2, “Pyrrolo[1,2-A]pyrimidinyl carboxamide compounds and their use in the treatment of medical disorders” (Bial—Biotech Investments, Inc., priority 2016, dated 2021).
Values after ≈ are worked out from the molar mass of the structure shown.

Key:
[1] = Compound solubility in water; assay type: physicochemical
[2] = target: T1, glucocerebrosidase (Gcase) (Homo sapiens, UniProt P04062); test: Glucocerebrosidase (Gcase) activation assay, 4-methylumbelliferyl-beta-D-glucopyranoside substrate, fluorescence; assay type: biochemical; conditions: 10 nM GCase, 100 nM saposin C; for activation at 0.1 µM / activation at 1 µM: 0.25 h; for activation at 0.1 µM: pH 4.7, test compound at 0.1 μM, read-out: Percent Gcase Activation 0.1 μM Test Compound; for activation at 1 µM: pH 4.7, test compound at 1.0 μM, read-out: Percent Gcase Activation 1 μM Test Compound
T1 sequence (P04062 40-536): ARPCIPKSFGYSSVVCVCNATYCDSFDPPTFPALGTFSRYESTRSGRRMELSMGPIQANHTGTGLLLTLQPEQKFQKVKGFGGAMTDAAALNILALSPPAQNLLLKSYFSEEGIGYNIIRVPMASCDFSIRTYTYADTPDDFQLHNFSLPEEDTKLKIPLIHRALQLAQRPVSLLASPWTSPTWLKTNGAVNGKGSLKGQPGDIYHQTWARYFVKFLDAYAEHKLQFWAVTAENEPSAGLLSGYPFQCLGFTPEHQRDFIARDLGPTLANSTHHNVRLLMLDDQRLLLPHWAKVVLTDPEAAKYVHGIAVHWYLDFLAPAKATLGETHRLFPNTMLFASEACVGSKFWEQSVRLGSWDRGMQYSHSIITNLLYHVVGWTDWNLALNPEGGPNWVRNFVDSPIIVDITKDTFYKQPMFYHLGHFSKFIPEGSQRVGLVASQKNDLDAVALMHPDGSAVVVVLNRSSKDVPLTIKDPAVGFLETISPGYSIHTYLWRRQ
Outline: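 10 nM GCase with 100 nM saposin C in Triton/phosphatidylserine micelles (citrate-phosphate, pH 4.7), pre-incubated 30 min at room temperature with compound, then 2 mM 4-methylumbelliferyl-β-D-glucoside stock mixed 1:1; 15 min reaction, stopped with glycine pH 12.5, fluorescence at 365/440 nm. Activation scored at 1.0 and 0.1 μM; 8-point curves from 5 μM top.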

Row | Structure (SMILES) | solubility [1] | activation at 0.1 µM [2] | activation at 1 µM [2] | Compound Solubility in Water [1] | Percent Gcase Activation 0.1 μM Test Compound ([2]; test compound at 0.1 μM, pH 4.7) | Percent Gcase Activation 1 μM Test Compound ([2]; test compound at 1.0 μM, pH 4.7)
1 | Cc1c2c(nc3c(C(=O)NC(C)(C)C4CC4)ccn13)CCC2 [III-73] | 0.9 µg/mL (≈ 3.03 µM) | 10 to 20% | > 60% |  |  | 
2 | CCc1ccc(C(C)NC(=O)c2ccn3c(C)cc(C)nc23)cc1 (stereo not drawn) [IV-44] | 2 µg/mL (≈ 6.22 µM) | > 20% | > 60% |  |  | 
3 | COc1ccccc1[C@H](C)NC(=O)c1ccn2c(C)cc(C)nc12 [IV-27] | 3 µg/mL (≈ 9.28 µM) | > 20% | > 60% |  |  | 
4 | Cc1cc(C)n2ccc(C(=O)NC(C)c3cccc4ccccc34)c2n1 (stereo not drawn) [IV-23] |  | 10 to 20% | > 60% | 0.2 µg/mL |  | 
5 | CCC(NC(=O)c1ccn2c(C)cc(C)nc12)c1cc(C)ccn1 (stereo not drawn) [IV-54] | 23.2 µg/mL (≈ 72 µM) | < 10% | < 30% |  |  | 
6 | COc1ccc([C@@H](C)NC(=O)c2ccn3c(C)cc(C)nc23)cc1 [IV-24] | 5.3 µg/mL (≈ 16.4 µM) | < 10% | > 60% |  |  | 
7 | COc1cccc([C@H](C)NC(=O)c2ccn3c(C)cc(C)nc23)c1 [IV-33] | 9.4 µg/mL (≈ 29.1 µM) | 10 to 20% | > 60% |  |  | 
8 | COCc1cc(C)nc2c(C(=O)NC(C)(C)C3CC3)ccn12 [III 16] | 19.8 µg/mL (≈ 65.7 µM) | > 20% | > 60% |  |  | 
9 | Cc1cc(C)n2ccc(C(=O)NC(C)c3ccc4c(c3)OCO4)c2n1 (stereo not drawn) [IV-45] | 5.7 µg/mL (≈ 16.9 µM) | < 10% | 30 to 60% |  |  | 
10 | CCCO[C@H]1CC[C@H](NC(=O)c2ccn3c(C)cc(C(F)F)nc23)CC1 [IV-12] | 18.5 µg/mL (≈ 50.6 µM) | 10 to 20% | > 60% |  |  | 
11 | Cc1cc(C)n2ccc(C(=O)NC(C)c3cn(C)c4ccccc34)c2n1 (stereo not drawn) [IV-49] | 2.1 µg/mL (≈ 6.06 µM) | 10 to 20% | > 60% |  |  | 
12 | CO[C@H]1CC[C@H](NC(=O)c2ccn3c(C)cc(-c4ccc(F)cc4)nc23)CC1 [III-48] | 0.9 µg/mL (≈ 2.36 µM) | 10 to 20% | > 60% |  |  | 
13 | COCc1cc(C(F)F)n2ccc(C(=O)NC(C)(C)C3CC3)c2n1 [III-4] | 17 µg/mL (≈ 50.4 µM) | > 20% | > 60% |  |  | 
14 | Cc1cc(C)n2ccc(C(=O)NC(C)c3nc4c(s3)CCCC4)c2n1 (stereo not drawn) [IV-64] | 4.9 µg/mL (≈ 13.8 µM) | 10 to 20% | > 60% |  |  | 
15 | Cc1cc(C)n2ccc(C(=O)N[C@@H](C)c3ccc(Cl)cc3)c2n1 [IV-46] | 0.4 µg/mL (≈ 1.22 µM) | > 20% | > 60% |  |  | 
16 | C#Cc1ccc(NC(=O)c2ccn3c(C)cc(-c4cccnc4)nc23)cc1 [III-61] | 1.2 µg/mL (≈ 3.41 µM) | > 20% | > 60% |  |  | 
17 | COCc1cc(C(F)F)nc2c(C(=O)NC(C)(C)C3CCC3)ccn12 [III-5] | 3 µg/mL (≈ 8.54 µM) | 10 to 20% | > 60% |  |  | 

Row | Structure (SMILES) | solubility [1] | activation at 0.1 µM [2] | activation at 1 µM [2] | Compound Solubility in Water [1] | Percent Gcase Activation 0.1 μM Test Compound ([2]; test compound at 0.1 μM, pH 4.7) | Percent Gcase Activation 1 μM Test Compound ([2]; test compound at 1.0 μM, pH 4.7)
18 | Cc1cc(C)n2ccc(C(=O)N[C@H](C)C3CC3)c2n1 [III-65] | 20.7 µg/mL (≈ 80.4 µM) | < 10% | 30 to 60% |  |  | 
19 | COC1CCC(Nc2cc(C)n3ccc(C(=O)NC(C)(C)C4CC4)c3n2)CC1 (stereo not drawn) [II1-37] | 10.2 µg/mL (≈ 26.5 µM) | < 10% | 30 to 60% |  |  | 
20 | Cc1cc(C)n2ccc(C(=O)NC3(C4CC4)CC3)c2n1 [III-22] | 21.4 µg/mL (≈ 79.5 µM) | 10 to 20% | > 60% |  |  | 
21 | Cc1cc(C)n2ccc(C(=O)NC(C)C3CCCCC3)c2n1 (stereo not drawn) [III-62] | 5.1 µg/mL (≈ 17 µM) | > 20% | > 60% |  |  | 
22 | Cc1cc(C(F)F)nc2c(C(=O)N[C@H]3CC[C@H](OCC(C)(C)C)CC3)ccn12 [IV-14] | 0.8 µg/mL (≈ 2.03 µM) | > 20% | > 60% |  |  | 
23 | Cc1cc(C)n2ccc(C(=O)NC(C)(C)c3cccc4ccccc34)c2n1 [IV-48] | 0.6 µg/mL (≈ 1.68 µM) | > 20% | > 60% |  |  | 
24 | Cc1cc(N2CCOCC2)nc2c(C(=O)NC(C)(C)C3CC3)ccn12 [III-35] | 14 µg/mL (≈ 40.9 µM) | 10 to 20% | > 60% |  |  | 
25 | Cc1nc2c(C(=O)N[C@H]3CC[C@H](OC(C)(C)C)CC3)ccn2c2c1CCC2 [III-70] | 1.5 µg/mL (≈ 4.06 µM) | < 10% | < 30% |  |  | 
26 | Cc1cc(C(F)F)nc2c(C(=O)N[C@H]3CC[C@H](OCC(C)C)CC3)ccn12 [IV-13] | 5 µg/mL (≈ 13.2 µM) | > 20% | > 60% |  |  | 
27 | Cc1cc(C)n2ccc(C(=O)NC(C)(C)c3cccc(Cl)c3)c2n1 [IV-40] | 1.5 µg/mL (≈ 4.39 µM) |  |  |  | ** (Gcase activation in the range of 10% up to 20%) | +++ (Gcase activation greater than 60%)
28 | Cc1cc(C)n2ccc(C(=O)NC(C)C3(c4ccccc4)CCCC3)c2n1 (stereo not drawn) [IV-73] | 1.5 µg/mL (≈ 4.15 µM) | > 20% | > 60% |  |  | 
29 | CCc1cc(C)nc2c(C(=O)N[C@H]3CC[C@H](OC(C)(C)C)CC3)ccn12 [IV-5] | 8.1 µg/mL (≈ 22.7 µM) | 10 to 20% | > 60% |  |  | 
30 | Cc1cc(-c2ccncc2)nc2c(C(=O)NC(C)(C)C3CC3)ccn12 [III-40] | 3.5 µg/mL (≈ 10.5 µM) | 10 to 20% | > 60% |  |  | 
31 | Cc1cc(C)n2ccc(C(=O)NC(C)c3cccc4c3OCCCO4)c2n1 (stereo not drawn) [IV-53] | 5.1 µg/mL (≈ 14 µM) | 10 to 20% | > 60% |  |  | 
32 | Cc1cc(C)n2ccc(C(=O)NC3(c4ccc(F)cc4)CCOCC3)c2n1 [III-29] | 2.4 µg/mL (≈ 6.53 µM) | < 10% | 30 to 60% |  |  | 
33 | Cc1cc(F)nc2c(C(=O)NC(C)(C)C3CC3)ccn12 [III-17] | 6.3 µg/mL (≈ 22.9 µM) | 10 to 20% | > 60% |  |  | 
